Experimental data: the supplement of paper PMC10307832

Experiments:
Assay in all cases: relative viability (nuclei count vs DMSO), 5 days (fraction); higher = more cells survive
[1] = compound: C[C@@H](N)c1ccc(C(=O)Nc2ccnc3[nH]ccc23)cc1 + CC(C)C[C@H](NC(=O)[C@H](Cc1ccccc1)NC(=O)c1cnccn1)B(O)O [Bortezomib] (partner 0.002 µM)
How it was run: (§1)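 Relative viability equals treated-well nuclei counts divided by vehicle-well nuclei counts. Counts came from 4× images of lung cancer cell lines grown in 1536-well plates for 5 days after pin-tool dosing on the day after seeding. Dosing used one drug alone or a fixed anchor-drug dose plus five library-drug doses (not always all listed) in √10 steps, and values are medians of duplicate plates.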

Tanzisertib + Crizotinib = compound: O[C@H]1CC[C@H](Nc2ncc3nc(Nc4c(F)cc(F)cc4F)n([C@H]4CCOC4)c3n2)CC1 [Tanzisertib] + C[C@@H](Oc1cc(-c2cnn(C3CCNCC3)c2)cnc1N)c1c(Cl)ccc(F)c1Cl [Crizotinib] (partner 1 µM)
How it was run: as §1

Tanzisertib + Foretinib = compound: O[C@H]1CC[C@H](Nc2ncc3nc(Nc4c(F)cc(F)cc4F)n([C@H]4CCOC4)c3n2)CC1 [Tanzisertib] + COc1cc2c(Oc3ccc(NC(=O)C4(C(=O)Nc5ccc(F)cc5)CC4)cc3F)ccnc2cc1OCCCN1CCOCC1 [Foretinib] (partner 0.25 µM)
How it was run: as §1

Tanzisertib + Lapatinib = compound: O[C@H]1CC[C@H](Nc2ncc3nc(Nc4c(F)cc(F)cc4F)n([C@H]4CCOC4)c3n2)CC1 [Tanzisertib] + CS(=O)(=O)CCNCc1ccc(-c2ccc3ncnc(Nc4ccc(OCc5cccc(F)c5)c(Cl)c4)c3c2)o1 [Lapatinib] (partner 2 µM)
How it was run: as §1

Row | Cell Line | relative viability ([1]; first compound 0.04 µM) | relative viability ([1]; first compound 0.1265 µM) | relative viability ([1]; first compound 0.4 µM) | relative viability ([1]; first compound 1.265 µM) | relative viability ([1]; first compound 4 µM) | relative viability (Tanzisertib + Crizotinib; first compound 0.08 µM) | relative viability (Tanzisertib + Crizotinib; first compound 0.253 µM) | relative viability (Tanzisertib + Crizotinib; first compound 0.8 µM) | relative viability (Tanzisertib + Crizotinib; first compound 2.53 µM) | relative viability (Tanzisertib + Crizotinib; first compound 8 µM) | relative viability (Tanzisertib + Foretinib; first compound 0.08 µM) | relative viability (Tanzisertib + Foretinib; first compound 0.253 µM) | relative viability (Tanzisertib + Foretinib; first compound 0.8 µM) | relative viability (Tanzisertib + Foretinib; first compound 2.53 µM) | relative viability (Tanzisertib + Foretinib; first compound 8 µM) | relative viability (Tanzisertib + Lapatinib; first compound 0.08 µM) | relative viability (Tanzisertib + Lapatinib; first compound 0.253 µM) | relative viability (Tanzisertib + Lapatinib; first compound 0.8 µM) | relative viability (Tanzisertib + Lapatinib; first compound 2.53 µM) | relative viability (Tanzisertib + Lapatinib; first compound 8 µM)
1 | NCI-H2085 | 0.882 | 1 | 0.979 | 0.996 | 0.842 | 0.875 | 0.805 | 0.819 | 0.889 | 0.93 | 0.893 | 1.11 | 1.14 | 1.03 | 1.05 | 0.794 | 0.726 | 0.818 | 0.83 | 0.755
2 | PC-14 | 0.832 | 0.836 | 0.874 | 0.923 | 0.755 | 0.979 | 0.878 | 0.994 | 0.883 | 0.574 | 1.05 | 0.983 | 0.933 | 0.951 | 0.61 | 0.34 | 0.303 | 0.26 | 0.341 | 0.311
3 | HOP-62 | 0.983 | 0.62 | 0.675 | 0.49 | 0.922 | 0.945 | 0.964 | 1 | 1.05 | 0.824 | 0.99 | 1.07 | 0.986 | 1.22 | 1.32 | 1.25 | 0.85 | 1.06 | 1.12 | 0.511
4 | NCI-H2087 | 0.49 | 0.783 | 0.719 | 0.499 | 0.686 | 0.717 | 0.918 | 0.889 | 0.899 | 1.06 | 1.23 | 0.992 | 1.12 | 1.06 | 1.09 | 1.19 | 1.08 | 1.2 | 1.07 | 0.974
5 | PC-3 [JPC-3] | 0.838 | 0.892 | 0.856 | 0.921 | 0.729 | 0.969 | 1.05 | 0.989 | 0.971 | 0.994 | 1.07 | 1.06 | 1.08 | 1.06 | 0.889 | 0.466 | 0.406 | 0.494 | 0.422 | 0.494
6 | H3255 | 0.827 | 0.86 | 0.895 | 0.955 | 0.657 | 0.933 | 0.855 | 1.01 | 0.875 | 0.662 | 0.729 | 0.77 | 0.831 | 0.841 | 0.696 | 0.231 | 0.29 | 0.256 | 0.256 | 0.205
7 | EMC-BAC-2 | 0.882 | 1.21 | 1.19 | 1.08 | 0.968 | 0.799 | 0.74 | 0.705 | 0.763 | 0.747 | 1.04 | 0.937 | 0.988 | 0.969 | 0.966 | 1.03 | 0.923 | 0.931 | 0.867 | 0.841
8 | CAL-12T | 1.09 | 1.07 | 1.2 |  | 1.04 | 0.677 | 0.715 | 0.684 | 0.547 | 0.686 | 1.11 | 1.13 | 1.05 | 1.25 | 1.07 | 0.635 | 0.617 | 0.795 | 0.762 | 0.72
9 | NCI-H650 | 0.586 | 0.695 | 0.86 |  | 0.64 | 0.725 | 0.686 | 0.712 | 0.881 | 0.636 | 0.979 | 1.07 | 1.04 | 1.09 | 1.08 | 0.963 | 1.14 | 1.02 | 1.06 | 0.295
10 | EBC-1 | 0.573 | 0.662 | 0.558 | 0.444 | 0.487 | 0.206 | 0.168 | 0.195 | 0.178 | 0.185 | 0.102 | 0.093 | 0.104 | 0.117 | 0.109 | 0.216 | 0.213 | 0.204 | 0.189 | 0.178
11 | NCI-H1355 | 1.04 | 1.22 | 1.35 |  | 1.26 | 1.12 | 1.11 | 1.06 | 1.08 | 1.06 | 1.03 | 0.961 | 0.965 | 1.04 | 0.948 | 1.02 | 1.03 | 1.05 | 1.06 | 1.05
12 | NCI-H838 | 0.624 | 0.758 | 0.605 | 0.393 | 0.342 | 0.892 | 0.849 | 0.875 | 0.88 | 0.885 | 1.1 | 1.01 | 1.11 | 1.02 | 0.937 | 1.22 | 0.993 | 1.04 | 0.998 | 0.958
13 | NCI-H1650 | 0.227 | 0.199 | 0.221 | 0.205 | 0.203 | 1 | 1.06 | 1.07 | 0.914 | 0.803 | 1.3 | 0.984 | 1.07 | 1.15 | 0.776 | 0.958 | 0.759 | 0.838 | 0.842 | 0.331
14 | IA-LM | 0.977 | 0.87 | 1.08 | 1.07 | 0.677 | 0.927 | 0.544 |  | 0.948 | 0.87 | 1.02 | 1.28 | 1.04 | 1.28 | 1.09 | 0.855 | 0.732 |  | 1.03 | 1.03
15 | NCI-H1703 | 0.376 | 0.281 | 0.256 |  | 0.236 | 0.538 | 0.573 | 0.69 | 1.08 | 0.723 | 0.406 | 0.371 | 0.359 | 0.262 | 0.261 | 1.29 | 1.08 | 1.09 | 1.11 | 0.942
16 | NCI-H322M | 1.4 | 1.38 | 1.34 |  | 1.72 | 0.779 | 0.928 | 0.832 | 0.882 | 0.709 | 1.02 | 0.962 | 0.886 | 0.961 | 0.97 | 0.621 | 0.61 | 0.567 | 0.626 | 0.571
17 | NCI-H661 | 0.739 | 0.844 | 0.94 | 0.76 | 0.737 | 1.04 | 0.939 |  | 1.02 | 0.991 | 1.07 | 0.999 | 1 | 1.04 | 0.995 | 0.596 | 0.431 | 0.505 | 0.511 | 0.449
18 | NCI-H2228 | 1.42 | 1.18 | 1.31 | 0.932 | 1.01 | 0.53 | 0.458 | 0.475 | 0.465 | 0.351 | 0.961 | 0.869 | 0.928 | 0.733 | 0.68 | 1.27 | 1.15 | 1.13 | 1.23 | 1.13
19 | NCI-H520 | 0.756 | 0.716 | 0.628 | 0.638 | 0.54 | 0.862 | 0.821 | 0.745 | 0.68 | 0.863 | 0.792 | 0.734 | 0.83 | 0.753 | 0.757 | 0.834 | 0.804 | 0.827 | 0.789 | 0.819
